Measurements as given in article PMC4869175, “Evidence that phytochrome functions as a protein kinase in plant light signalling” (Nature Communications, 2016).

Biological target: T1, FL-AsphyA (Avena sativa, UniProt P06593)
T1 construct: Full-length phytochrome genes of AsPHYA; made in house; host or cells: Pichia pastoris GS115
T1 sequence (P06593 1-1129): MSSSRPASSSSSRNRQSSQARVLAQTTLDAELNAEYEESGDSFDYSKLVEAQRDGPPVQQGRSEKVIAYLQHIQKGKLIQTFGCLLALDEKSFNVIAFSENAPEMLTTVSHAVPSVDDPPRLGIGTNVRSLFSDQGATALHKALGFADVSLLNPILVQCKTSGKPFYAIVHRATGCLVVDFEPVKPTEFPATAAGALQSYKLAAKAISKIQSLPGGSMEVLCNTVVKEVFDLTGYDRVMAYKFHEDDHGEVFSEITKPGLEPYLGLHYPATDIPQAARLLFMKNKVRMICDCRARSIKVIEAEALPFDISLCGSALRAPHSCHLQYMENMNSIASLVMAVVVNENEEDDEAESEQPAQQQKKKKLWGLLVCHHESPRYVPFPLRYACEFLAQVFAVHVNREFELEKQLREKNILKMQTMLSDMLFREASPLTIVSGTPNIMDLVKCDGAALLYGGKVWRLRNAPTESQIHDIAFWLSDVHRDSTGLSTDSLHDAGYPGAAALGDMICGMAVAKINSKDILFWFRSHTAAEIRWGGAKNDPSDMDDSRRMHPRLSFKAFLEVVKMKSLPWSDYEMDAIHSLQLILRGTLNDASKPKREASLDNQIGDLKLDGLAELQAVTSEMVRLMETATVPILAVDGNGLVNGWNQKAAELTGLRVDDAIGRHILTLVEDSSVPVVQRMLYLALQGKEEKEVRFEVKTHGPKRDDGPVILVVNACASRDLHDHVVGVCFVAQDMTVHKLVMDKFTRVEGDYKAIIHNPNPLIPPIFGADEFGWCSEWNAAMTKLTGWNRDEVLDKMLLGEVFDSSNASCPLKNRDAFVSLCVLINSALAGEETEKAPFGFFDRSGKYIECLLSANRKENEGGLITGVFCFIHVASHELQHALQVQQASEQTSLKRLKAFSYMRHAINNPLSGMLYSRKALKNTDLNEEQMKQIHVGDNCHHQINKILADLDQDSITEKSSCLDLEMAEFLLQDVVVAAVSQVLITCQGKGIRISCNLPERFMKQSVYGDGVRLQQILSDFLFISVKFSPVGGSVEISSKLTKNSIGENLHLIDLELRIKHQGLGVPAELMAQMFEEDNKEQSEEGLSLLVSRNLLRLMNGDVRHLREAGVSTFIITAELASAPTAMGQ
Experiment: Autophosphorylation and kinase activity assays of 8-azido-ATP-labelled AsphyA
Type: biochemical
Conditions: Pfr form of FL-AsphyA, 8-azido-ATP labeling buffer
Description: For autophosphorylation assays, reaction mixtures (20 μl) contained kinase buffer (25 mM Tris-HCl, pH 7.8, 0.2 mM EDTA, 4 mM DTT and 5 mM MgCl2) and purified recombinant phytochromes (0.5–1.0 μg) in either Pr or Pfr forms. Phytochrome samples were irradiated with red or far-red light for 15 min before the start of the reaction. Because histone H1 is known to stimulate phytochrome autophosphorylation activity, the same amount of histone H1 (0.5–1.0 μg) was added to the phytochrome samples in the indicated experiments. The conditions for kinase assays were similar to those of phytochrome autophosphorylation experiments, except for addition of a substrate (0.5–1.0 μg). Reactions were started by adding 150 μM ATP containing 10 μCi of (γ-^32P) ATP and incubated at 30 °C for 1 h. […] To verify the proteins loaded, Coomassie blue protein staining and zinc-fluorescence assay were performed before drying. For quantification of the phosphorylation, dried gels were exposed to Fuji imaging plates, and the relative signals of phyA autophosphorylation and PIF3 phosphorylation by phyA were quantitated with a Typhoon FLA 7000 phosphor-imager (GE Healthcare).
Supplementary Figure 11. […] 8-azido-ATP labeled proteins were then detected using avidin-HRP. […] The band intensities were quantified using ImageJ software, and the percentages of 8-azido-ATP labeling were normalized to the 66-610 protein signals. […]

## 8-N3-ATP-biotin-long chain-hydrazone [8-azido-ATP]
  autophosphorylation of 8-azido-ATP-labelled AsphyA: little autophosphorylation
  kinase activity (PIF3) of 8-azido-ATP-labelled AsphyA: significantly reduced kinase activity
